Data published in US20250136555A1 (HARBIN MEDISAN PHARMACEUTICAL CO., LTD., priority 2022, published 2025).
“Also recorded” adds a separate entry of the source.

Experiments:
[1] = system: ANIT-induced cholestasis in mice; experiment: α-Naphthylisothiocyanate (ANIT)-induced cholestasis in mice; assay type: in vivo, C57 mice
Description: Animals: 25 male C57 mice, SPF grade, 8 weeks old, weighing about 20 g, purchased from Beijing Vital River. All animals maintained a 12-hour alternating circadian rhythm and were given ad libitum access to food and water. […] The mice were all fed food and water normally. The molding and administration processes were as follows: the mice in each of the administration groups were intragastrically administered the corresponding doses and types of compounds 6 h before modeling, and the mice in the control group and the model group were administered solvent controls with the same volume. When modeling, except for the control group, the mice in each group were intragastrically administered ANIT at a dose of 80 mg/kg, and the mice in the control group were administered the solvent control with the same volume. The administration was then continued for two days, once per day. Each group of mice was weighed every day, and their body weight, hair, feces, and activities were carefully observed and recorded. Forty-eight hours after giving ANIT for molding, blood was collected from the orbit, the mice were euthanized, and the liver was collected. The right lobular tissue of the liver was fixed with 4% paraformaldehyde and used for sectioning followed by HE staining. The remaining liver tissues were snap-frozen in liquid nitrogen for subsequent assays of other indexes. The whole blood was left to stand at room temperature for 2 h and centrifuged at 3000 rpm for 15 min, and serum was collected. Levels of aspartate aminotransferase (AST), alanine aminotransferase (ALT), alkaline phosphatase (ALP), total bilirubin (TBil), and total bile acid (TBA) in the serum were assayed. The fixed tissue was sent to Wuhan Servicebio Technology Co., Ltd. for preparing HE-stained sections. The test was performed using a tissue and blood alkaline phosphatase (AKP/ALP) activity assay kit (BC2145) purchased from Beijing Solarbio Science & Technology Co., Ltd. The liver tissue stored at −80° C. was taken and placed in liquid nitrogen, about 0.1 g of liver tissue was rapidly cut off, and 1 mL of an extracting solution was added. The mixture was ground thoroughly and centrifuged at 4° C. and 10000 rpm for 10 min, and the supernatant was collected for assay. The assay was performed by referring to the method in the product's instruction. Data were corrected according to protein concentrations of the samples, and the catalytic production of 1 μmol phenol per minute per milligram protein at 37° C. was defined as one enzymatic activity unit.

C57 mice = experiment: Serum triglyceride levels in mice; assay type: in vivo
Description: Animals: 48 male C57 mice, SPF grade, 8 weeks old, weighing about 20 g, purchased from Beijing Vital River. All animals maintained a 12-hour alternating circadian rhythm and were given ad libitum access to food and water. […] Mice in the control group were administered a solvent control CMC-Na every day, and mice in each of the administration groups were administered the corresponding drug every day. Intragastric administration was performed for 5 consecutive days, and the mice were given ad libitum access to food and water during administration. Each group of mice was weighed every day, and their body weight, hair, feces, and activities were carefully observed and recorded. Two hours after administration on day 5, blood was collected from the orbit, and the mice were euthanized. The whole blood was left to stand at room temperature for 2 h and centrifuged at 3000 rpm for 15 min, and serum was collected. The serum was placed onto the automatic biochemical analyzer (Google Biotechnology Co., Ltd.) to determine the triglyceride (TG) levels in the serum.

[2] = system: non-PPAR nuclear receptors; experiment: GAL4 hybrid reporter gene method, non-PPAR nuclear receptors (summary statement); assay type: cell-based; details: 1 μM
Description: Reporter gene plasmids for different nuclear receptors were constructed by referring to the method in the literature (Journal of Medicinal Chemistry 2022, 65, 2571-2592). Transfection working solutions for different nuclear receptors were prepared and added into COS-7 cells. The preparation method for the transfection working solution was as follows: the constructed pBIND-Gal4-PPARα (LBD) (or pBIND-Gal4-PPARδ (LBD) plasmid or pBIND-Gal4-PPARγ (LBD) plasmid or pBIND-Gal4-RARα (LBD) plasmid or pBIND-Gal4-RARγ (LBD) plasmid or pBIND-Gal4-RARβ (LBD) plasmid or pBIND-Gal4-RORα (LBD) plasmid or pBIND-Gal4-RORγ (LBD) plasmid or pBIND-Gal4-RORβ (LBD) plasmid or pBIND-Gal4-FXR (LBD) plasmid or pBIND-Gal4-RXRα. (LBD) plasmid or pBIND-Gal4-RXRγ (LBD) plasmid or pBIND-Gal4-RXRβ (LBD) plasmid or pBIND-Gal4-VDR (LBD) plasmid or pBIND-Gal4-LXRα (LBD) plasmid or pBIND-Gal4-LXRβ (LBD) plasmid or pBIND-Gal4-[…] (LBD) plasmid or pBIND-Gal4-PXR (LBD) plasmid or pBIND-Gal4-CAR (LBD) plasmid), 15 μg of pGL4.35-9×Gal4 UAS plasmid (purchased from Promega (Beijing) Biotech Co., Ltd.), and 60 μL of a transfection reagent ([…], purchased from Wuhan ABclonal Biotechnology Co., Ltd.) were added to 2 mL of Opti-MEM, the mixture was left to stand at room temperature for 15 min, and then the working solution was obtained.

[3] = system: PPARα/δ downstream target genes; experiment: Expression of PPARα/δ downstream target genes in mouse liver and skeletal muscle; assay type: in vivo, C57 mice; details: mice, 0.03 and 0.1 mg/kg, three days
Description: C57 mice were divided into three groups, i.e., a control group, a low dose group (0.03 mg/kg), and a high dose group (0.1 mg/kg), with 6 mice in each group. Each group of mice was intragastrically administered compound 1 or a solvent control with the same volume for three consecutive days according to the doses. Three days after administration, the mice were euthanized and dissected for sampling. Liver and skeletal muscle were snap-frozen in liquid nitrogen for subsequent experiments. After extracting RNA in the liver and skeletal muscle, the up-regulation fold of the expression of the PPARα/δ downstream target genes was detected. […] Some of other compounds of the present invention also have similar effects.

PPARα = molecular target: T1, PPARα (Homo sapiens, UniProt Q07869); experiment: GAL4 hybrid reporter gene method, PPARα agonistic activity; assay type: cell-based; details: Cos-7 cells, Gal4-PPARα (LBD); GW7647 10 nM = 100%; 16 h
T1 construct: expressed in transfected cells; host or cells: COS-7
T1 sequence (Q07869 239-466 limits assumed): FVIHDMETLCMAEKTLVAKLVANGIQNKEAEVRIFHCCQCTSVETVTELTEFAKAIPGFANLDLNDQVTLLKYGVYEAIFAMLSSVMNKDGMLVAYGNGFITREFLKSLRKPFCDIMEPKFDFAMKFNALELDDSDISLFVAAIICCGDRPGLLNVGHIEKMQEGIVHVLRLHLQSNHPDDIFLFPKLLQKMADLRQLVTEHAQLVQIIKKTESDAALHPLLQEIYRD
Description: Cos-7 cells (African green monkey kidney fibroblasts, commonly used tool cells) were cultured in a 10-cm cell culture dish with a DMEM complete medium containing 10% fetal bovine serum. When growing at a density of about 70%, the cells were ready for transfection. […] The working solution described above was then combined with 8 mL of the DMEM complete medium, and the mixture was added to the cell culture dish for cell transfection. After 4 h of transfection, the cells were digested, resuspended, and seeded into a 96-well plate at 25,000 cells/well. […] 10 μL of a reporter gene detection solution (purchased from Shanghai Beyotime Biological Tech. Co., Ltd.) was added. After the resulting solution was mixed and reacted, biological fluorescence was detected by using a multifunctional microplate reader, and corresponding half maximal effective concentration (EC50) values were calculated according to the detection values. […] Transfection working solutions for different nuclear receptors were prepared and added into COS-7 cells. The preparation method for the transfection working solution was as follows: the constructed pBIND-Gal4-PPARα (LBD) (or pBIND-Gal4-PPARδ (LBD) plasmid or pBIND-Gal4-PPARγ (LBD) plasmid or pBIND-Gal4-RARα (LBD) plasmid or pBIND-Gal4-RARγ (LBD) plasmid or pBIND-Gal4-RARβ (LBD) plasmid or pBIND-Gal4-RORα (LBD) plasmid or pBIND-Gal4-RORγ (LBD) plasmid or pBIND-Gal4-RORβ (LBD) plasmid or pBIND-Gal4-FXR (LBD) plasmid or pBIND-Gal4-RXRα.

- agonistic effect on non-PPAR nuclear receptors [2]: no significant agonistic effect
- EC50 (PPARα): 0.7 nM
Compound: Cc1cc(CN2C(=O)CN(c3ccc(C(F)(F)F)cc3)C2=O)cc(C)c1OC(C)(C)C(=O)O [Compound 1, 2-(4-((2,5-Dioxo-3-(4-(trifluoromethyl)phenyl)imidazolidin-1-yl)methyl)-2,6-dimethylphenoxy)-2-methylpropionic Acid]
- intrahepatic cholestasis: liver morphology and serum color (FIG. 2) ([1]; ANIT 80 mg/kg, 0.03 and 0.1 mg/kg intragastric): effectively improve intrahepatic cholestasis
- therapeutic effect on mouse cholestatic model (conclusion) ([1]; ANIT model): potent therapeutic effect
- level of intrahepatic ALP (FIG. 4) ([1]; ANIT model, 0.03 and 0.1 mg/kg): significantly down-regulate
- necrotic areas in the liver, HE staining (FIG. 5) ([1]; ANIT model, 0.03 and 0.1 mg/kg): dose-dependently reduce the number and area of necrotic areas
- serum ALP (FIG. 3) ([1]; ANIT model, 0.03 and 0.1 mg/kg): a certain tendency to reduce
- serum ALT level (FIG. 3) ([1]; ANIT model, 0.03 and 0.1 mg/kg): dose-dependently and significantly down-regulate
- serum AST level (FIG. 3) ([1]; ANIT model, 0.03 and 0.1 mg/kg): dose-dependently and significantly down-regulate
- serum TBA level (FIG. 3) ([1]; ANIT model, 0.03 and 0.1 mg/kg): dose-dependently and significantly down-regulate
- serum TBil level (FIG. 3) ([1]; ANIT model, 0.03 and 0.1 mg/kg): dose-dependently and significantly down-regulate
- ability to improve general appearance of the liver and serum color versus GFT505 ([1]; compound 1 0.03 mg/kg vs GFT505 30 mg/kg): comparable to the effect of GFT505 at 30 mg/kg
- effects on reducing hepatic enzymes, total bilirubin and total bile acid versus GFT505 ([1]; compound 1 0.1 mg/kg vs GFT505 30 mg/kg): comparable to that of GFT505 at 30 mg/kg
- effect on reducing intrahepatic ALP versus GFT505 ([1]; compound 1 at the two doses vs GFT505 30 mg/kg): slightly superior to that of GFT505 at 30 mg/kg
- triglyceride level in mouse serum (FIG. 1) (C57 mice; 1 mg/kg intragastric, 5 consecutive days): significantly reduce the triglyceride level
- effect in reducing triglycerides versus positive drugs (C57 mice; compound 1 1 mg/kg vs GFT505 1 mg/kg, pemafibrate 1 mg/kg, fenofibrate 30 mg/kg): significantly more effective in reducing triglycerides than GFT505 and pemafibrate at the equivalent dose; also recorded: superior to fenofibrate
- expression of PPARα/δ downstream target genes in liver and skeletal muscle [3]: significantly up-regulated
- PPARα EC50 (nM) (PPARα): picomolar levels; also recorded: low nanomolar levels
